Data reported in patent US20110237567A9, “TRICYCLIC SPIRO-OXINDOLE DERIVATIVES AND THEIR USES AS THERAPEUTIC AGENTS” (XENON PHARMACEUTICALS INC., priority 2006, published 2011).

How the values were obtained:
[1] = tested on: sodium channel; experiment: Guanidine influx assay (in vitro); format: cell-based, human or rat; conditions: known cell line that expresses a sodium channel; read-out: IC50 Activity Level
Source text: This example describes an in vitro assay for testing and profiling test agents against human or rat sodium channels stably expressed in cells of either an endogenous or recombinant origin. The assay is also useful for determining the IC-50 of a sodium channel blocking compound. The assay is based on the guanidine flux assay described by Reddy, N. L., et al., J Med Chem (1998), 41(17):3298-302.
The guanidine influx assay is a radiotracer flux assay used to determine ion flux activity of sodium channels in a high-throughput microplate-based format. The assay uses ^14C-guanidine hydrochloride in combination with various known sodium channel modulators, to assay the potency of test agents. Potency is determined by an IC-50 calculation. Selectivity is determined by comparing potency of the compound for the channel of interest to its potency against other sodium channels (also called ‘selectivity profiling’). […]
Cells expressing the channel of interest are grown according to the supplier or in the case of a recombinant cell in the presence of selective growth media such as G418 (Gibco/Invitrogen). The cells are disassociated from the culture dishes with an enzymatic solution (1×) Trypsin/EDTA (Gibco/Invitrogen) and analyzed for density and viability using haemocytometer (Neubauer). […]
IC-50 value of a test agent for a specific sodium channel may be determined using the above general method. […]

IC50 [1] [nM]	melting point [°C]	SMILES
100 to 1000	–	O=C1N2CCCOc3cccc(c32)C12COc1cc3c(cc12)OCO3 (stereo not drawn) [Example 2]
10 to 100	–	O=C1N2CCCCc3ccc(Br)c(c32)C12COc1cc3c(cc12)OCO3 (stereo not drawn) [Example 4]
–	216 to 217	O=C1N2CCCSc3cccc(c32)C12COc1cc3c(cc12)OCO3 (stereo not drawn) [Synthetic Example 1, 3′,4′-Dihydro-2′H-spiro[furo[2,3-f][1,3]benzodioxole-7,7′-[1,4]thiazepino[2,3,4-hi]indol]-6′-one]
